Test results taken from ChEMBL document CHEMBL3352541, “1-Phenylsulfinyl-3-(pyridin-3-yl)naphthalen-2-ols: a new class of potent and selective aldosterone synthase inhibitors” (Eur J Med Chem, 2015).

Columns and labels:
[1] = molecular target: T1, Cytochrome P450 11B2, mitochondrial (Homo sapiens, UniProt P19099); format: cell-based; details: V79MZ, 1 h
T1 sequence (P19099 whole entry): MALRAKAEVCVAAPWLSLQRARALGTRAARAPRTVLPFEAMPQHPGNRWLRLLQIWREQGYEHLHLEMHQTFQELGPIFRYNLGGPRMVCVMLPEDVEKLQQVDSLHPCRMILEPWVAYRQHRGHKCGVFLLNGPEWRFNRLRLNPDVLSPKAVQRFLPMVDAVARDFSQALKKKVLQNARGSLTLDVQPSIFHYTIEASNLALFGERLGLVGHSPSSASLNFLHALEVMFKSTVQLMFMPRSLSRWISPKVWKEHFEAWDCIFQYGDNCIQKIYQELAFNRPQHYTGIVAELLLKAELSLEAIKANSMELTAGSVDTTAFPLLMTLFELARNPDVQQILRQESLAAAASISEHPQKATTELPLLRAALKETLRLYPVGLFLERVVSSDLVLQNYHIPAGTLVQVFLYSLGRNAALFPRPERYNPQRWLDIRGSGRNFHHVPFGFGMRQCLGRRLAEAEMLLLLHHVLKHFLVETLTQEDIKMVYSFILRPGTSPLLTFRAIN

[2] = molecular target: T1, Cytochrome P450 11B2, mitochondrial
Description: Inhibition of human CYP11B2 expressed in hamster V79MZ cells using [3H]-11-deoxycorticosterone as substrate after 1 hr by HPLC analysis

[3] = molecular target: T2, Cytochrome P450 11B1, mitochondrial (Homo sapiens, UniProt P15538)
T2 sequence (P15538 whole entry): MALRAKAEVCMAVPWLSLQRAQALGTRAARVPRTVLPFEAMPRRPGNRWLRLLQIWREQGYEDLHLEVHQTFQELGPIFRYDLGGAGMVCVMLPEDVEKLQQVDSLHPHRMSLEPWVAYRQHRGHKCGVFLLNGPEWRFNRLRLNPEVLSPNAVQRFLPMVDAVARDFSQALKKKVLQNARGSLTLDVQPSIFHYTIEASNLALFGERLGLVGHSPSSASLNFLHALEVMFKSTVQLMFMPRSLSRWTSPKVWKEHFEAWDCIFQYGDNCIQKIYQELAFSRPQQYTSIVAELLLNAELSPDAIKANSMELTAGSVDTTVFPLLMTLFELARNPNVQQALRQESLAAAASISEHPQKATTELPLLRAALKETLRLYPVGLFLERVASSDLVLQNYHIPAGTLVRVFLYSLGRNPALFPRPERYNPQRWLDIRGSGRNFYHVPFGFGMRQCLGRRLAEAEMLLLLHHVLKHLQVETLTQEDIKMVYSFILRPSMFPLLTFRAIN
Description: Inhibition of human CYP11B1 expressed in hamster V79MZ cells using [3H]-11-deoxycorticosterone as substrate after 1 hr by HPLC analysis

[4] = molecular target: T3, CYP19 (aromatase) (Homo sapiens, UniProt P11511); experiment: Inhibition of human recombinant CYP19 using [1beta3H]androstenedione as substrate at 500 nM; details: recombinant human CYP19, probe [1beta3H]androstenedione
T3 sequence (P11511 whole entry): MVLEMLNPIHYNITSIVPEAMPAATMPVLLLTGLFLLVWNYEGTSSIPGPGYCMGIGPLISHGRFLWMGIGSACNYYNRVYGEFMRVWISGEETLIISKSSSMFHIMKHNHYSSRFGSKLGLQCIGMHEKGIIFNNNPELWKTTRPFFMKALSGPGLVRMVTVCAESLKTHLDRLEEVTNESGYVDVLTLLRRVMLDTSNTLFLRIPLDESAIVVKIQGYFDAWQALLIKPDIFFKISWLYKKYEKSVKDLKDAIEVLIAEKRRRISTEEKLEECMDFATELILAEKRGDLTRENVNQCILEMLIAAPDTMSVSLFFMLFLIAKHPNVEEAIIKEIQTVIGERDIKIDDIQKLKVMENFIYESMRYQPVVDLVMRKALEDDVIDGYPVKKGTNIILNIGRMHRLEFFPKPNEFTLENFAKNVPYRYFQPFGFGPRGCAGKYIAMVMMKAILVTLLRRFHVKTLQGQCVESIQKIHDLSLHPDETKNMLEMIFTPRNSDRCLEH

[5] = tested on: V79MZ; experiment: Selectivity ratio of IC50 for human CYP11B1 expressed in hamster V79MZ cells to IC50 for human CYP11B2 expressed in hamster V79MZ cells; format: cell-based
[6] = molecular target: T4, CYP17 (Homo sapiens, UniProt P05093); experiment: Inhibition of human recombinant CYP17 expressed in Escherichia coli using progesterone as substrate at 2 uM; details: probe progesterone
T4 sequence (P05093 whole entry): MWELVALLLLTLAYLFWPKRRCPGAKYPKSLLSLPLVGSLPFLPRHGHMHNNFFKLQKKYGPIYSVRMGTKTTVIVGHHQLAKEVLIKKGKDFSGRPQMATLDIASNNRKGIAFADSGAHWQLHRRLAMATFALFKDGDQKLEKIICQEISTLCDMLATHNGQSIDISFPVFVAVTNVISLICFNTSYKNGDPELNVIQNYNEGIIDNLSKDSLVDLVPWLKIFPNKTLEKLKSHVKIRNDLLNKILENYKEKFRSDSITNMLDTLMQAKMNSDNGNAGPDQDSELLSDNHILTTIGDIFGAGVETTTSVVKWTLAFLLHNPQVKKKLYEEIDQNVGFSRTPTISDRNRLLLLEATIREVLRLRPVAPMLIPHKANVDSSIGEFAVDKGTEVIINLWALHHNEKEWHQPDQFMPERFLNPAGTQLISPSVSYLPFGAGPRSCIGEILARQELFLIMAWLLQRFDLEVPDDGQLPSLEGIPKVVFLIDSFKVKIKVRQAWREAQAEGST

[7] = Terminal half life in Wistar rat at 1 mg/kg, iv by HPLC-MS/MS analysis; format: ADME, organism-based; design: dose 1 mg/kg, route intravenous; details: in vivo, read-out: beta t1/2 (converted)
[8] = Terminal half life in Wistar rat at 1 mg/kg, po by HPLC-MS/MS analysis; format: ADME, organism-based; design: dose 1 mg/kg, route oral; details: in vivo, read-out: beta t1/2 (converted)
[9] = Oral bioavailability in Wistar rat at 1 mg/kg by HPLC-MS/MS analysis; format: ADME, organism-based; details: in vivo
[10] = AUC in Wistar rat at 1 mg/kg, po by HPLC-MS/MS analysis; format: ADME, organism-based; design: dose 1 mg/kg, route oral; details: plasma
[11] = Cmax in Wistar rat at 1 mg/kg, po after 0.5 hrs by HPLC-MS/MS analysis; format: ADME, organism-based; design: dose 1 mg/kg, route oral; details: in vivo
[12] = AUC in Wistar rat at 1 mg/kg, iv by HPLC-MS/MS analysis; format: ADME, organism-based; design: dose 1 mg/kg, route intravenous; details: plasma

Structure (SMILES) | inhibition [1] [%] | IC50 [2] [nM] | IC50 [3] [nM] | inhibition at 0.5 µM [4] [%] | inhibition at 2 µM [6] [%] | half-life [7] [h] | half-life [8] [h] | bioavailability [9] [%] | AUC [10] [ng·h/mL] | Cmax [11] [ng/mL] | AUC [12] [ng·h/mL] | Ratio IC50 [5]
[O-][S+](c1cccs1)c1c(O)c(-c2cccnc2)cc2ccccc12 (stereo not given) | 79 | 192 | 6160 | < 5 | < 5 | – | – | – | – | – | – | 32
[O-][S+](c1ccccc1)c1cc(-c2cccnc2)cc2ccccc12 (stereo not given) | 33 | – | – | – | – | – | – | – | – | – | – | –
[O-][S+](c1ccccc1Cl)c1c(O)c(-c2cccnc2)cc2ccccc12 (stereo not given) | 90 | 22 | 4490 | < 5 | < 5 | – | – | – | – | – | – | 204
[O-][S+](c1cc(Cl)cc(Cl)c1)c1c(O)c(-c2cccnc2)cc2ccccc12 (stereo not given) | 87 | 47 | 4720 | < 5 | < 5 | – | – | – | – | – | – | 100
N#Cc1cccc([S+]([O-])c2c(O)c(-c3cccnc3)cc3ccccc23)c1 (stereo not given) | 84 | 46 | 8550 | < 5 | < 5 | – | – | – | – | – | – | 186
[O-][S+](c1cccc(Cl)c1)c1c(O)c(-c2cccnc2)cc2ccccc12 (stereo not given) | 90 | 60 | 4800 | < 5 | < 5 | – | – | – | – | – | – | 80
Oc1c(-c2cccnc2)cc2ccccc2c1Sc1ccccc1 | 22 | – | – | – | – | – | – | – | – | – | – | –
[O-][S+](c1ccc(Cl)c(Cl)c1)c1c(O)c(-c2cccnc2)cc2ccccc12 (stereo not given) | 90 | 33 | 8330 | < 5 | < 5 | – | – | – | – | – | – | 253
COc1ccccc1[S+]([O-])c1c(O)c(-c2cccnc2)cc2ccccc12 (stereo not given) | 86 | 64 | 1100 | < 5 | < 5 | – | – | – | – | – | – | 17
COc1cccc(Sc2c(O)c(-c3cccnc3)cc3ccccc23)c1 | 20 | – | – | – | – | – | – | – | – | – | – | –
COc1ccc(Sc2c(O)c(-c3cccnc3)cc3ccccc23)cc1 | 22 | – | – | – | – | – | – | – | – | – | – | –
COc1ccccc1Sc1c(O)c(-c2cccnc2)cc2ccccc12 | 18 | – | – | – | – | – | – | – | – | – | – | –
O=S(=O)(c1ccccc1)c1cc2ccccc2cc1-c1cccnc1 | 16 | – | – | – | – | – | – | – | – | – | – | –
c1ccc(Sc2cc(-c3cccnc3)cc3ccccc23)cc1 | 15 | – | – | – | – | – | – | – | – | – | – | –
COc1cccc([S+]([O-])c2c(O)c(-c3cccnc3)cc3ccccc23)c1 (stereo not given) | 87 | 27 | 7310 | < 5 | < 5 | – | – | – | – | – | – | 271

Second part, led by results:

inhibition [1] [%] | IC50 [2] [nM] | IC50 [3] [nM] | inhibition at 0.5 µM [4] [%] | inhibition at 2 µM [6] [%] | half-life [7] [h] | half-life [8] [h] | bioavailability [9] [%] | AUC [10] [ng·h/mL] | Cmax [11] [ng/mL] | AUC [12] [ng·h/mL] | Structure (SMILES) | Ratio IC50 [5]
86 | 53 | 5080 | < 5 | < 5 | – | – | – | – | – | – | [O-][S+](c1ccccc1C(F)(F)F)c1c(O)c(-c2cccnc2)cc2ccccc12 (stereo not given) | 96
77 | 56 | 4710 | < 5 | < 5 | – | – | – | – | – | – | [O-][S+](c1ccccc1OC(F)(F)F)c1c(O)c(-c2cccnc2)cc2ccccc12 (stereo not given) | 84
84 | 22 | 8950 | < 5 | < 5 | – | – | – | – | – | – | [O-][S+](c1ccc(Cl)cc1)c1c(O)c(-c2cccnc2)cc2ccccc12 (stereo not given) | 407
85 | 33 | 6710 | < 5 | < 5 | – | – | – | – | – | – | [O-][S+](c1ccccc1)c1c(O)c(-c2cccnc2)cc2ccccc12 (stereo not given) | 203
83 | 14 | 5810 | < 5 | < 5 | 4 | 7 | 19 | 335 | 40.4 | 1780 | [O-][S+](c1cccc(OC(F)(F)F)c1)c1c(O)c(-c2cccnc2)cc2ccccc12 (stereo not given) | 415
91 | 53 | 6530 | < 5 | < 5 | – | – | – | – | – | – | [O-][S+](c1ccc(F)c(Cl)c1)c1c(O)c(-c2cccnc2)cc2ccccc12 (stereo not given) | 123
47 | – | – | – | – | – | – | – | – | – | – | N#Cc1ccc([S+]([O-])c2c(O)c(-c3cccnc3)cc3ccccc23)cc1 (stereo not given) | –
85 | 39 | 6550 | < 5 | < 5 | – | – | – | – | – | – | [O-][S+](c1cccc(F)c1)c1c(O)c(-c2cccnc2)cc2ccccc12 (stereo not given) | 168
88 | 43 | 6670 | < 5 | < 5 | – | – | – | – | – | – | [O-][S+](c1cccc(C(F)(F)F)c1)c1c(O)c(-c2cccnc2)cc2ccccc12 (stereo not given) | 155
84 | 33 | 5550 | < 5 | < 5 | – | – | – | – | – | – | [O-][S+](c1ccc(F)cc1)c1c(O)c(-c2cccnc2)cc2ccccc12 (stereo not given) | 168
88 | 32 | 7430 | < 5 | < 5 | – | – | – | – | – | – | [O-][S+](c1ccc(OC(F)(F)F)cc1)c1c(O)c(-c2cccnc2)cc2ccccc12 (stereo not given) | 232
80 | 48 | 4200 | < 5 | < 5 | – | – | – | – | – | – | COc1ccc([S+]([O-])c2c(O)c(-c3cccnc3)cc3ccccc23)cc1 (stereo not given) | 87
78 | 33 | 9350 | < 5 | < 5 | – | – | – | – | – | – | [O-][S+](c1cc(C(F)(F)F)cc(C(F)(F)F)c1)c1c(O)c(-c2cccnc2)cc2ccccc12 (stereo not given) | 283
81 | 25 | 6190 | < 5 | < 5 | – | – | – | – | – | – | [O-][S+](c1ccc(C(F)(F)F)cc1)c1c(O)c(-c2cccnc2)cc2ccccc12 (stereo not given) | 248
